This note sets out measurements from article PMC11852920, “The Diacylglycerol Acyltransferase 3 of Chlamydomonas reinhardtii Is a Disordered Protein Capable of Binding to Lipids Derived from Chloroplasts” (Biomolecules, 2025).

The experiment deals with T1, DGAT3 (Chlamydomonas reinhardtii, UniProt A8IMA8).
T1 construct: gene CHLRE_06g310200v5; Trp216, Trp218, Tyr294 (only Trp/Tyr residues); 18 Asp, 22 Glu, 6 Phe, 9 His; chloroplast protein
T1 sequence (A8IMA8 2-346): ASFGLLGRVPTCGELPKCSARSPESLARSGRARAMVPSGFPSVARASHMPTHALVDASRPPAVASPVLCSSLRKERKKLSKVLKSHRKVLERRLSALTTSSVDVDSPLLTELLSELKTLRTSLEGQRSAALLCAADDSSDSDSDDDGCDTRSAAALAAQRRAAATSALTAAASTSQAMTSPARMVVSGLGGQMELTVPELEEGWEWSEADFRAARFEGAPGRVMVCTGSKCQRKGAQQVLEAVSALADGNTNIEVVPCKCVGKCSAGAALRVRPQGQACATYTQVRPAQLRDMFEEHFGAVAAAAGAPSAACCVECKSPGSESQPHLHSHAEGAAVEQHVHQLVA
The experiment is described as follows: steady-state intrinsic Trp fluorescence anisotropy titration with lipid vesicles. Format: binding. The settings on record: partition coefficient (protein between water and lipid phase), not a Kd; anionic POPG vesicles (bilayer, not monomeric lipid); 5 uM protein, 50 mM Tris, 100 mM NaCl, 5 mM TCEP, pH 8; 25 °C. For orientation: Polarisation of emitted light reports the rotation of a fluorescent probe.

`CCCCCCCC/C=C\CCCCCCCC(=O)O[C@H](COC(=O)CCCCCCCCCCCCCCC)COP(=O)(O)OCC(O)CO` (mixture of isomers) [POPG, 1-palmitoyl-2-oleoyl-sn-glycero-3-phospho-(1′-rac-glycerol)]: the Kp was ~ 40,000.
